Values quoted from earlier work in PMC10485003, “Antibiotic hyper-resistance in a class I aminoacyl-tRNA synthetase with altered active site signature motif” (Nature Communications, 2023).

Test system: IleRS
Set-up: method as in PMID 18234501
Conditions: monic acid A alone, without the nonanoic acid part; cited from earlier work

## CC(=CC(=O)O)CC1OCC(CC2OC2C(C)C(C)O)C(O)C1O (stereo not shown) [monic acid A]
  inhibitor activity: cannot act as an inhibitor
